According to patent publication US11969002B2, “Savoury and mouthfulness taste enhancers” (LUCTA, S.A., priority 2018, dated 2024):

System: kokumi and/or umami taste
Assay: Sensory test: taste threshold in model broth (duo-trio test, sensory panel)
Type: in vivo
Conditions: for taste quality with the savoury taste threshold in model broth: descriptor in brackets after the threshold value; for minimal effective concentration: duo-trio-test ISO 10399:2017, model broth as constant blank, successive 1:2 dilutions in model broth, panel value averaged over three sessions, read-out: savoury taste threshold in model broth
Description: This sensory test allowed evaluating the capacity of the compounds of formula (IA), (IB), (IC), (ID), (IE), (IF), (IG), (IH) and (IJ) as defined above to enhance taste; particularly kokumi and/or umami taste. This test allowed measuring the taste threshold of the mixtures comprising an amount from 86% to 99% by weight measured by quantitative proton-NMR of a compound of formula (IA), (IB), (IC), (ID), (IE), (IF), (IG), (IH) and (IJ) in model broth. The “taste threshold” refers to the minimum taste stimulus needed to detect the presence of a compound of formula (IA), (IB), (IC), (ID), (IE), (IF), (IG), (IH) and (IJ) of the present invention. The lower the taste threshold, the greater the capacity as enhancer; particularly greater the capacity as kokumi and/or umami enhancer.
Samples • Diluted samples of the mixtures comprising a compound of formula (IA), (IB), (IC), (ID), (IE), (IF), (IG) and (IJ) in an amount from 86% to 99% by weight measured by quantitative proton-NMR with model broth. • Model broth as constant […]. • Diluted samples of comparative samples with model broth: • Comparative compound 1: 5-(aminomethyl)-2-methylpyrimidin-4-amine (Berkshire, United Kingdom) • Comparative compound 2: (4-amino-2-methylpyrimidin-5-yl)methanol (Carbosynth-Berkshire, United Kingdom) • Comparative compound 3: Thiamine (Sigma-Aldrich, Steinheim, Germany)
Model broth: The model broth comprises the following composition: 1.9 g/L of sodium Sodium chloride (Sigma Aldrich, Steinheim, Germany); 1.9 g/L of mono sodium L-glutatmate (Merck, Darmastadt, Germany); 6.4 g/L of Maltodextrin (Sigma Aldrich, Steinheim, Germany); and 2.1 g/L yeast extract (Gistex GSX II, DSM Food specialities Savoury Ingredients; Delft, Netherlands). The model broth is prepared by mixing the ingrediets under agitation in an ultrasonic bath.
Diluted samples of the mixtures comprising a compound of formula (IA), (IB), (IC), (ID), (IE), (IF), (IG), (IH) and (IJ) in an amount from 86% to 99% by weight measured by quantitative proton-NMR of the present invention: The pH value of each individual mixture comprising an amount from 86% to 99% by weight measured by quantitative proton-NMR of a compound of formula (IA), (IB), (IC), (ID), (IE), (IF), (IG), (IH) and (IJ) was adjusted to 5.4 by the addition of the appropriate amount of formic acid. Each individual pH adjusted mixture thus obtained was diluted 1:2 successively with the model broth to obtain diluted solutions of the mixture comprising a compound of formula formula (IA), (IB), (IC), (ID), (IE), (IF), (IG), (IH) and (IJ) in a concentration from 10 μmol/L to 1000 μmol/L measured by quantitative proton-NMR.
Diluted samples of the comparative compounds 1-3. A mixture of each individual comparative compound 1-3 with model broth was prepared by successively dilution 1:2 of each individual comparative compound with model broth to obtain the diluted comparative solutions having a concentration from 10 μmol/L to 1000 μmol/L measured by quantitative proton-NMR of the comparative compound.
The diluted solutions of the present invention and the comparative solutions falling outside the scope of protection of the present invention obtained above were presented to the panelists with increasing concentrations of the tested solutions by means of the duo-trio-test according to ISO 10399:2017; using the model broth as constant blank. The panelists were asked to mark the differing samples.
The taste threshold is calculated by means of the geometric mean. The geometric mean of the last and the second last concentration was calculated and taken as the individual threshold. The threshold value of the sensory panel was approximated by averaging the threshold values of the individuals in three independent sessions. Values between individuals and separate sessions differed not more than two dilution steps (cf. Lawless, Harry T. “Sensory Evaluation of Food”. Springer, 2nd edition, 2010, pp. 125-145)

Compound | taste quality with the savoury taste threshold in model broth | minimal effective concentration
Cc1ncc(CS)c(N)n1 (single isomer, unassigned) [Mixture comprising (IJ), (4-amino-2-methylpyrimidin-5-yl)methanethiol] | kokumi | 80 µM
Cc1ncc(CSCC(N)C(=O)NCC(=O)O)c(N)n1 (single isomer, unassigned) [Mixture comprising (IC), S-((4-amino-2-methylpyrimidin-5-yl)methyl)cysteinylglycine] | kokumi | 880 µM
Cc1ncc(CN)c(N)n1 [Comparative compound 1, 5-(aminomethyl)-2-methylpyrimidin-4-amine, reference compound] | – | > 1100 µM
CCC(SCc1cnc(C)nc1N)C(C)=O (single isomer, unassigned) [Mixture comprising (IE), 3-(((4-amino-2-methylpyrimidin-5-yl)methyl)thio)pentan-2-one] | kokumi | 35 µM
CSCc1cnc(C)nc1N (single isomer, unassigned) [Mixture comprising (IH), 2-methyl-5-((methylthio)methyl)pyrimidin-4-amine] | kokumi | 70 µM
Cc1ncc(CO)c(N)n1 [Comparative compound 2, (4-amino-2-methylpyrimidin-5-yl)methanol, reference compound] | kokumi | 700 µM
Cc1ncc(CSCc2ccco2)c(N)n1 (single isomer, unassigned) [Mixture comprising (IG), 5-(((furan-2-ylmethyl)thio)methyl)-2-methylpyrimidin-4-amine] | kokumi | 120 µM
Cc1ncc(CSC[C@H](N)C(=O)O)c(N)n1 (single isomer, unassigned) [Mixture comprising (IA), S-((4-amino-2-methylpyrimidin-5-yl)methyl)-L-cysteine] | kokumi | 120 µM
Cc1ncc(CSCC2NC(=O)CNC2=O)c(N)n1 (single isomer, unassigned) [Mixture comprising (ID), 3-((((4-amino-2-methylpyrimidin-5-yl)methyl)thio)methyl)piperazine-2,5-dione] | kokumi | 255 µM
Cc1ncc(CSc2ccoc2C)c(N)n1 (single isomer, unassigned) [Mixture comprising (IF), 2-methyl-5-(((2-methylfuran-3-yl)thio)methyl)pyrimidin-4-amine] | kokumi | 50 µM
CC(=O)C(CCO)SCc1cnc(C)nc1N (single isomer, unassigned) [Mixture comprising (IB), 3-(((4-amino-2-methylpyrimidin-5-yl)methyl)thio)-5-hydroxy-pentan-2-one] | kokumi | 40 µM
Cc1ncc(C[n+]2csc(CCO)c2C)c(N)n1 [Comparative compound 3, Thiamine, reference compound] | – | 1200 µM
